Values joined by “and” are separate entries in the source; they are usually repeats but may differ in a detail not shown here. Equal entries are not always repeated. Where two headings read alike, the source gives them in different places.

Data set [1] has as its system male Wistar rats. Description: Opioid hyperalgesia in tail and paw withdrawal tests (% rats).
Data set [2] concerns Wistar rats. Description: Rotenone model: hyperkinetic side effect in open field test (days 10 and 18). Format: in vivo, rat. The following applies: for Hyperkmesia (% of group): phenylephrine 0.3 mg/kg oral. As for the experimental part:
Anti-parkinsonian effect of therapy in rats with rotenone-induced PD was estimated according to elimination of extrapyramidal disorders (catalepsy) and oligokinesia (rapid decreased amplitude and velocity of repeated movements) in the “open field” test. The neuro-protective effect of therapy was evaluated by the elimination of ataxia limb dystonia and mortality in rats with rotenone-induced PSP. Hyperkinetic side action (hyper-locomotion) was evaluated by increased horizontal and vertical activity in the open field at the 10th and 18th day of the experiment, calculated in % compared to the first day of the experiment.
Ataxia and limb dystonia registration was performed twice daily, 30 minutes before administration of rotenone and 180 minutes after administration of rotenone. For each experimental group on a daily basis, throughout the whole period of observation number of rats with severe ataxia and limb dystonia (++−+++) and mortality in % of the total number of rats in group was determined. The neuro-protective effect of therapy (effects on rate of ataxia, limb dystonia and lethality) in rats with PSP was determined at days 12 and 19 of the experiment as reducing the number of rats with severe ataxia limb dystonia and mortality in % compared to control. Side hyperkinetic effects were evaluated in the “open field” test. In this test the locomotive activity in rats is determined. […] Registration of horizontal and vertical locomotive activity in OF assay was performed on the 10th and 18th day of the experiment, within 40 minutes after administration of the substance and 5 minutes before administration of rotenone. Side hyperkinetic effects was evaluated by the number of rats with a significant (at least 50% compared with the first day of the experiment) increase in horizontal and vertical activity (hyperkinesia) as a % of the total number of rats in group.
Anti-parkinsonian effect of therapy in rats with rotenone-induced parkinsonism was estimated according to elimination of extrapyramidal disorders (catalepsy) and oligokinesia in the “open field” test. The neuro-protective effect of therapy was evaluated by the elimination of ataxia and mortality in rats with rotenone-induced PSP. Hyperkinetic side action (hyper-locomotion) was evaluated by increased horizontal and vertical activity in the open field at the 10th and 18th day of the experiment, calculated in % compared to the first day of the experiment.
The neuro-protective effect in the experimental groups of rats with rotenone-induced PSP was evaluated due the elimination of ataxia and mortality caused by neurotoxic action of rotenone. Ataxia is typical incoordination neurotoxic effect of rotenone manifested in uncoordinated movements and hyper-locomotion, replaced by hypokinesia and stereotypes, and in severe cases a complete violation of antigravity reflexes, falling on its side and akinesia. Assessment of the severity of ataxia in scores was performed using the following scale: (+) uncoordinated movement, hyperkinesia; (++) significant incoordination, hypokinesia, stereotypes, falling on its side; (+++) complete violation of antigravity reflexes, akinesia. Ataxia registration was performed twice daily, 30 minutes before administration of rotenone and 180 minutes after administration of rotenone. For each experimental group on a daily basis, throughout the whole period of observation number of rats with severe ataxia (++−+++) and mortality in % of the total number of rats in group was determined. The neuro-protective effect of therapy (effects on rate of ataxia and lethality) in rats with PSP was determined at days 12 and 19 of the experiment as reducing the number of rats with severe ataxia and mortality in % compared to control. Side hyperkinetic effects were evaluated in the “open field” test. In this test the locomotive activity in rats is determined. […]

In data set [3] the test system is Wistar rats. Description: Open field test, hypokinetic (sedative) or hyperkinetic action (analgesia examples). The following applies: for Horizontal locomotive activity: control 16.1; for Hyperkinesia or sedataion / Hyperkinesia / Hyperkinesia or sedation: unmarked cells; for Hyperkinesia or sedataion: doses as E12; for Hyperkinesia or sedation: doses as E6. As to the method: (§1) To evaluate the hypokinetic (sedative) or hyperkinetic action effects of tested drugs an “open field” (OF) test was applied. In the OF test, the locomotive activity of rats is determined. Animals were placed in the center of square of the illuminated field (1 meter×1 meter) for 3 minutes and the mobility time was recorded in seconds (horizontal activity). […] To quantify the locomotive activity for each dose of test drug(s) an average horizontal activity was calculated.
as §1
To evaluate the hypokinetic (sedative) effects of drugs, “open field” (OF) test was applied. In the OF test, the locomotive activity of rats is determined. Animals were placed in the center of square of the illuminated field (1 meter×1 meter) for 3 minutes and the mobility time was recorded in seconds (horizontal activity). […] To quantify the locomotive activity for each dose of test drug(s), an average horizontal activity was calculated.
Tail-Flick and Open Field Tests were Conducted as Detailed Above.
as §1

Data set [4] deals with Wistar rats. Description: Rotenone-induced PD: severe oligokinesia in open field test. Format: in vivo, rat. The following applies: for Severe oligokinesia (% of group): phenylephrine 0.3 mg/kg oral, oligokinesia ++-+++ in OF test; for Severe oligokinesia, Day 12 / Severe oligokinesia, Day 19: control 100. As for the experimental part: Locomotive activity of rats was tested in the “open field” test. […] Registration of horizontal and vertical locomotive activity was carried out in first day for rats with high selection locomotive activity (total walking time with not less than 12 seconds and the number of vertical uprights at least 4), 60 minutes before the first administration of rotenone. To identify the rotenone-induced oligokinesia in each experimental group the locomotive activity in the open field test was examined again 2 hours after the administration of rotenone on days 12 and 19 of the experiment.
(§2) Quantification of oligokinesia in points: 0 points—the highest horizontal activity (walking total time more than 12 seconds) and high vertical activity (number of vertical posts) more than 3; 1 point—reducing the horizontal activity (total walking time 7-11 seconds) and a decrease in vertical activity (the number of vertical columns 1-3); 2 points—a significant reduction in horizontal activity (total walking time 2-6 seconds) and the absence of vertical activity (the number of vertical columns 0-1); 3 points—the absence of horizontal activity (total walking time 0-1 seconds) and the absence of vertical activity (number of vertical columns 0). In each experimental group 120 minutes after administration of rotenone on days 12 and 19 of experiment the number of rats with severe oligokinesia (2-3 points) in % of the total number of rats in group was determined.
Locomotive activity of rats was tested in the “open field” test. […] Registration of horizontal and vertical locomotive activity was carried out in first day for rats with high selection locomotive activity (total walking time with not less than 12 seconds and the number of vertical uprights at least 4), 60 minutes before the first administration of rotenone. To identify the rotenone-induced oligokynesia in each experimental group the locomotive activity in the open field test was examined again 2 hours after the administration of rotenone on days 12 and 19 of the experiment.
as §2, with “of oligokynesia” for “of oligokinesia”

For data set [5], the system named is Wistar rats. Description: Open field test, hyperkinetic side effects (haloperidol catalepsy examples). Format: in vivo, rat. The following applies: oral. As to the method: To evaluate the side hyperkinetic effects of drugs, the test an “open field” (OF) test was applied. […] To quantify the locomotive activity for each dose of the test drug(s), an average horizontal activity was calculated.

For the compound `CNC[C@H](O)c1cccc(O)c1` [Phenylephrine, phenylephrine], the Hyperalgesia in data set [1] (doses as E12) and in data set [1] (doses as E54) was 0 % rats each time. The “Hyperkinesia, Day 18” value in data set [2] and in data set [2] (doses as E38) was 0 % of group each time. Also, the “Hyperkmesia (% of group)” value in data set [2] (Day 10, locomotive activity in OF test increased more than 50% vs first day) was 0 % of group; in data set [2] (Day 18, locomotive activity in OF test increased more than 50% vs first day), 0 % of group. Besides, the “Hyperkinesia, Day 10” value in data set [2] (doses as E38) and in data set [2] (locomotive activity in OF test increased more than 50% vs first day) was 0 % of group throughout. The Horizontal locomotive activity in data set [3] (oral, doses as E35) is 15.9 s and 16.3 s and 17.9 s. Also, the Sedation in data set [3] (oral, doses as E35) is reported as 0% of group. In data set [3], this compound yielded a Hyperkinesia or sedataion of 0 % rats. Also, the Hyperkinesia in data set [3] (doses as E54) is on record as 0 % rats; in data set [5] (doses by row as E18) it was 0 % of Rats; in data set [5] (doses by row as E30) it was 0 % of Rats; in data set [5] (doses by row as E60), 0 % of Rats; in data set [5] (open field 40 min after dosing, doses by row as E1), 0 % of Rats. Besides, the “Severe oligokinesia (% of group)” value is reported as 86 % of group in data set [4] (Day 12) and 100 % of group in data set [4] (Day 19). The “Severe oligokinesia, Day 12” value in data set [4] was 86 % of group; in data set [4] (doses as E38) it was 90 % of group. Besides, the “Severe oligokinesia, Day 19” value in data set [4] and in data set [4] (doses as E38) was 100 % of group in each case.

As for `CN(C)CCC=C1c2ccccc2CCc2ccccc21` [Amitriptyline, amitriptyline], the Hyperalgesia in data set [1] (doses as E12) and in data set [1] (doses as E54) was 0 % rats throughout. For the same compound, in data set [3], the Hyperkinesia or sedataion is reported as 0 % rats. In data set [3] (doses as E54), this compound returned a Hyperkinesia of 0 % rats.

For the compound `Cc1c(N(C)CS(=O)(=O)[O-])c(=O)n(-c2ccccc2)n1C.[Na+]` [Dipyrone, dipyrone], the Hyperalgesia in data set [1] (doses as E12) and in data set [1] (doses as E54) was 0 % rats throughout. The Hyperkinesia or sedataion in data set [3] came out at 0 % rats. The Hyperkinesia in data set [3] (doses as E54) was 0 % rats.

In the case of `CN1CC[C@]23c4c5ccc(O)c4O[C@H]2[C@@H](O)C=C[C@H]3[C@H]1C5` [Morphine, morphine], the Horizontal locomotive activity in data set [3] (oral, doses as E35) was 15.5 s and 13.2 s and 7.8 s. Moreover, in data set [3], the Hyperkinesia or sedation worked out at 0 % rats and the Hyperkinesia or sedataion was determined as 0 % rats. Also, the Hyperkinesia in data set [3] (doses as E48) is reported as 0 % rats. In addition, in data set [3] (doses as E54), the Hyperkinesia was determined as 0 % rats.

Regarding `CNC[C@H](O)c1ccc(O)c(O)c1` [Epinephrine, epinephrine], the Hyperalgesia in data set [1] (doses as E6) and in data set [1] (doses as E48) was 0 % rats throughout. Further, the “Locomotive horizontal activity in open field” value in data set [3] (I.M., control 15.6, doses by row as E32) was 15.4 s and 15.9 s and 17.6 s. The Sedation in data set [3] (I.M., doses by row as E3) is 0 % of Rats; in data set [3] (I.M., doses by row as E32) it was 0% of group. In data set [3], this compound came in with a Hyperkinesia or sedation of 0 % rats. Besides, the Hyperkinesia in data set [3] (doses as E48) stood at 0 % rats.

The values above are taken from US20200188388A1, “METHODS AND COMPOSITIONS FOR PO[…] DRUGS AND REDUCING THEIR SIDE EFFECTS” (RVX THERAPEUTICS LTD., priority 2016, published 2020).
